Counter-ions that a name gives are not always drawn. Starred links: 1 amine or outer side, 2 acyl side, 3 side chain; linkers in the order of their positions; H or OH if unused. Positions of bridges follow the written chain, without caps; N, C: chain ends. Non-standard residues stand in square brackets, D forms with d. Residues, ends and D or L forms follow the SMILES beside them. Chains are numbered I, II in the order given. Actinocin(9to1) = Cc1c2oc3c(C)ccc(C(=O)[*:1])c3nc-2c(C(=O)[*:2])c(N)c1=O; NMeV = CN[C@H](C(=O)O)C(C)C; Sar = CNCC(=O)O
Assays:
[1] = test system: thymidylate synthase; assay: Thymidylate synthase (TS) assay in PC-3 cells; assay type: cell-based, Human; settings: PC3 cells, within 8 hours
Protocol: (§1) Human prostate cancer PC3 cells (American Type Culture Collection, Rockville, Md.) were maintained in RPMI-1640 (Life Technologies, Inc., Gaithersburg, Md.) supplemented with 10% FBS (HyClone Laboratories, Logan, Utah) at 37° C. in 5% CO2. Methionine restriction experiments were performed in methionine-free RPMI-1640 (Life Technologies, Inc.) supplemented with 10% FBS and 100 μM Homocysteine (Sigma, St. Louis). Folate restriction experiments were performed in folate-free RPMI-1640 medium (Life Technologies, Inc.) supplemented with 10% FBS. Primary culture prostate epithelial cells (PrEC) were purchased from BioWhittaker, Inc. and Clonetics Products (Walkersville, Md.). PrEC was maintained in the prostate epithelial basal medium and methionine restriction was performed in prostate epithelial cell labeling medium without methionine supplemented with 100 μM homocysteine, which were obtained from the company.
TS assay was performed as previously described (24). Briefly, 25 μl of cell extract containing 50 μg protein, 5 μl 6.5 mM 5,10-CH2-THF, and 10 μl of Tris.HCl buffer were combined at room temperature. […] After centrifugation, 150 μl of the supernatant were counted by liquid scintillation. […]

[2] = test system: thymidylate synthase; assay: Western blot of TS protein in PC3 cells; assay type: cell-based, Human
Protocol: as §1
Aliquots of samples with 50 μg of protein, determined by the Bradford assay (BioRad, Hercules, Calif.), were mixed with loading buffer (final concentrations of 62.5 mM Tris-HCl (pH 6.8), 2.3% SDS, 100 mM dithiothreitol, and 0.005% bromophenol blue), boiled, fractionated in a 10% SDS-PAGE, and transferred onto a 0.45-μm nitrocellulose membrane by electroblotting (BioRad). […]

[3] = test system: PC-3 cells; assay: HPLC analysis of nucleotide levels; assay type: cell-based, Human; settings: positive control for TS inhibition
Protocol: Cells were washed with phosphate buffered saline (PBS), trypsinized, washed again with PBS, counted, and pelleted. 5×10^5 cells from each sample were mixed with 10 μL 0.6 M trichloroacetic acid. The lysate was incubated at 4° C. for 30 minutes. After centrifugation, the acidic supernatant was transferred to a microcentrifuge tube. An equal volume of ice cold 80% 1,1,2-trichlorotrifluoroethane and 20% tri-n-octylamine was added to the lysate. The mixture was vortexed for 15 seconds and then centrifuged at 14000 g at 4° C. for 5 minutes. The aqueous supernatant was removed and centrifuged at 14000 g at 4° C. for 5 minutes. Samples were stored at −70° C. until use.used.
Clromatographic analyses were performed with a Waters 625 LC System (Waters Corporation, Milford, Mass., USA) consisting of a Waters 625 Fluid Handling Unit with a Rheodyne 9125-080 Manual Injector and 20 μL sample loop, 625E Powerline Controller, and 484 Tunable UV Detector. […]
A series of standards containing varying amounts of dUMP and dTTP ranging from […] was analyzed using the above methodology. The different quantities and their correlating absorption areas existed in a linear relationship. […] This linear equation was used to calculate the quantity of dUMP or dTTP represented by the absorption peaks in the chromatograms generated from our experimental samples.

[4] = test system: PC-3 cells; assay: Western blot of caspases, BID, Bcl-2, PC-3; assay type: cell-based, Human
[5] = test system: Hela cells; assay: Western blot of caspases, BID, Bcl-2, Hela
[6] = cited from earlier work
[7] = test system: multiple myeloma; settings: oral administration; cited from earlier work
[8] = test system: Hodgkin's Disease and testicular tumors; settings: in vivo; cited from earlier work
[9] = test system: Yoshida sarcoma; settings: coadministered with methionine depleted diet, 1.0 mg/kg/day on days 2, 4, 6; cited from earlier work
[10] = test system: human breast carcinoma (MX-t) cell line; settings: combined with methionine depletion; cited from earlier work
[11] = test system: GBM at recurrence; settings: single agent, cited from earlier work

With O=c1[nH]cc(F)c(=O)[nH]1 [5-FU, 5-fluorouracil] the “inhibition of TS activity” value [1] was 95%, the “TS protein accumulation in response to 5-FU” value ([2]; concurrent methionine restriction) was “largely abrogated” and the TS protein level ([2]; western blot) was “dramatically increased”. The dUMP/dTTP ratio [3] was “dramatic increase”.

In the case of CC(=O)O[C@H]1C(=O)[C@@]2(C)[C@H]([C@H](OC(=O)c3ccccc3)[C@]3(O)C[C@H](OC(=O)[C@H](O)[C@@H](NC(=O)c4ccccc4)c4ccccc4)C(C)=C1C3(C)C)[C@]1(OC(C)=O)CO[C@@H]1C[C@@H]2O [taxol, Taxol], the “Bcl-2 phosphorylation (upward shift on western blot)” value [4] is reported as “phosphorylated” and the “Bcl-2 phosphorylation (upward shift on western blot)” value [5] is reported as “phosphorylated”.

For O=NN(CCCl)C(=O)NC1CCCCC1 [Lomustine, 1-(2-chloro-ethyl)-3-cyclohexyl-1 nitrosourea], the “fraction of radioactivity excreted as degradation products” value ([6]; oral, 30 mg/m^2 to 100 mg/m^2, within 24 hours) is listed as “about half”.

In the case of Cc1c2oc3c(C)ccc(C(=O)N[C@@H]4C(=O)N[C@H](C(C)C)C(=O)N5CCC[C@H]5C(=O)N(C)CC(=O)N(C)[C@@H](C(C)C)C(=O)O[C@@H]4C)c3nc-2c(C(=O)N[C@@H]2C(=O)N[C@H](C(C)C)C(=O)N3CCC[C@H]3C(=O)N(C)CC(=O)N(C)[C@@H](C(C)C)C(=O)O[C@@H]2C)c(N)c1=O [Actinomycin D] (I: T[dV]P[Sar][NMeV] / II: T[dV]P[Sar][NMeV]; ester I:1-I:C, II:1-II:C; linker I:N-II:N via Actinocin(9to1)), the “fraction of the dose excreted intact into the bile” value ([6]; in vivo) is given as “Half”.

For N[C@@H](Cc1ccc(N(CCCl)CCCl)cc1)C(=O)O [Melphalan, 4-[bis(2-chloroethyl)amino]-L-phenylalanine], the “fraction of patients with favorable response” value [7] is given as “one third to one half”.

For Bleomycin, the “time until improvement is noted” value [8] is given as no more than 2 weeks.

In the case of COc1cccc2c1C(=O)c1c(O)c3c(c(O)c1C2=O)C[C@@](O)(C(=O)CO)C[C@@H]3O[C@H]1C[C@H](N)[C@H](O)[C@H](C)O1 [Doxorubicin, 5,12-Naphthacenedione, (8s-cis)-10-[(3-amino-2,3,6-trideoxy-a-L-lyxo-hexopyranosyl)oxy]-7,8,9,10-tetrahydro-6,8,11-trihydroxy-8-(hydroxyacetyl)-1-methoxy-hydrochloride], the “effectiveness (reduced tumor weight, increased survivability)” value [9] is listed as “enhanced effectiveness”.

In the case of CN[C@@H]1C[C@H]2O[C@@](C)([C@@H]1OC)n1c3ccccc3c3c4c(c5c6ccccc6n2c5c31)C(=O)NC4 [staurosporine], the “active (cleaved) form of caspases by western blot” value [5] is reported as “detectable”.

For N.N.[Cl][Pt][Cl] [cisplatin, Cisplatin], the “Treated tumor growth, % of growth in control mice tumors” value [10] is given as 32%.

In the case of O=NN(CCCl)C(=O)NCCCl [Carmustine, 1,3bis (2-chloroethyl)-1-nitrosourea], the “Response rate (responders plus stable disease)” value ([11]; Berger et al., 1996) is given as 29% and the “median time to progression” value [11] is given as 22 weeks.

Source: US20030129262A1, “Methionine restriction for cancer therapy” (priority 2001, published 2003)
